Experimental data: patent publication EP0281245B1, “Cytochrome P-450 enzymes” (Sankyo Company Limited, priority 1987, dated 1988)
Structures can show the parent of a compound that is named as a salt. Where two headings read alike, the source gives them in different places.

Key:
Assay in all cases: Effect of potential inhibitors and metallic ions on rate of formation of pravastatin sodium from sodium ML-236B carboxylate (method ii)
[1] = test system: P-450sca-3; type: biochemical, Streptomyces carbophilus
Procedure: (§1) (ii) Measurement of rate of formation of pravastatin sodium from sodium ML-236B carboxylate
(§2) The following cocktail of components is employed:
(§3) The components of the Table are mixed, the solution is shaken at 30°C for 5 minutes, and then 10 »l of 6 N NaOH is added and the reaction stopped. The amount of pravastatin sodium formed by the enzyme system is determined with HPLC.
(§4) The effects of potential inhibitors against cytochrome P-450sca-1 P-450sca-2, P-450sca-3 and the effects of metallic ions on the action of the cytochrome P-450 can be assessed quantitatively using the method (ii).

[2] = test system: cytochrome P-450sca-1; type: biochemical, Streptomyces carbophilus; conditions: for Residual activity of enzyme P-450sca-1: 5 min; for inhibition of cytochrome (in words): each cytochrome
Procedure: as §2, §3, §4

[3] = target: T1, P-450sca-2 (Streptomyces carbophilus, UniProt Q59831); type: biochemical; conditions: for remaining activity at 2000 µM: read-out: Residual activity of enzyme P-450sca-2
T1 construct: made in house; host or cells: Streptomyces carbophilus SANK 62585 (FERM BP-1145), native producer, not recombinant
T1 sequence (Q59831 1-410): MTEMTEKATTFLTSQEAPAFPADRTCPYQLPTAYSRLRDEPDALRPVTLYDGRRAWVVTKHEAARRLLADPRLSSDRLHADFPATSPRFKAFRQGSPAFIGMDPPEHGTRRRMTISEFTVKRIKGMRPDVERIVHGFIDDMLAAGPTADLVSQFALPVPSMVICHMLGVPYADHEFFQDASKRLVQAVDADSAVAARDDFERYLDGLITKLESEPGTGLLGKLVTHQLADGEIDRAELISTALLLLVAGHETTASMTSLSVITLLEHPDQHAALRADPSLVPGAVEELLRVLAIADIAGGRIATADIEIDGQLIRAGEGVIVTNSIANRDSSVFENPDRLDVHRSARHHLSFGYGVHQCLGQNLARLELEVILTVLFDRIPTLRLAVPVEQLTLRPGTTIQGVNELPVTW
Procedure: as §1, §2, §3, §4

SMILES | Residual activity of enzyme P-450sca-3 ([1]; 1 mM added compound) | inhibition of cytochrome (in words) ([1]; each cytochrome) | Residual activity of enzyme P-450sca-1 ([2]; 1 mM added compound) | inhibition of cytochrome (in words) [2] | Residual activity of enzyme P-450sca-2 ([3]; 1 mM added compound) | inhibition of cytochrome (in words) ([3]; each cytochrome) | further results
[Cl][Mn][Cl] [MnCl₂] | 17.5% | inhibited | 20.0% | inhibited | 18.7% | inhibited | –
[Ca+2].[Cl-].[Cl-] [CaCl₂] | 100.0% | – | 100.0% | – | 100.0% | – | –
[C-]#[O+] [CO, carbon monoxide] | – | inhibited | – | inhibited | – | inhibited | Residual activity of enzyme P-450sca-3 ([1]; CO bubbled in for 1 minute): 60.4%; Residual activity of enzyme P-450sca-1 ([2]; CO bubbled in for 1 minute): 50.0%; Residual activity of enzyme P-450sca-2 ([3]; CO bubbled in for 1 minute): 55.0%
[Cl][Cu][Cl] [CuCl₂] | 0% | inhibited | 0% | inhibited | 0% | inhibited | –
CN/C(=N/CCSCc1nc[nH]c1C)NC#N [Cimetidine] | – | – | – | inhibited | – | – | inhibition of cytochrome (in words) [1]: inhibited; Residual activity of enzyme P-450sca-3 ([1]; 2000 µM): 43.8%; Residual activity of enzyme P-450sca-1 ([2]; 2 mM added compound): 58.7%; inhibition of cytochrome (in words) [3]: inhibited; remaining activity at 2000 µM [3]: 45.7%
CCCC(C(=O)OCCN(CC)CC)(c1ccccc1)c1ccccc1 [SKF-525A, 2-diethylaminoethyl-2,2-diphenyl valerate hydrochloride] | – | inhibited | – | inhibited | – | inhibited | Residual activity of enzyme P-450sca-3 ([1]; 2 mM added compound): 24.1%; Residual activity of enzyme P-450sca-1 ([2]; 2 mM added compound): 25.8%; remaining activity at 2000 µM ([3]; 2 mM added compound): 22.8%
[Cl-].[Cl-].[Co+2] [CoCl₂] | 60.1% | inhibited | 65.0% | inhibited | 67.5% | inhibited | –
